Assays:
pH dependent solubility = type: physicochemical; settings: around pH 2 vs around pH 7
glucose utilization = settings: PK/PD model estimate, diabetic patients; FDA Briefing Document, Avandia IND 43,468; cited from earlier work

CN(CCOc1ccc(CC2SC(=O)NC2=O)cc1)c1ccccn1 (centres unmarked) [Compound A, 5-[4-[2-(N-methyl-N-(2pyridyl)amino)ethoxy]benzyl]thiazolidine-2,4-dione]
pH dependent solubility (pH dependent solubility): more soluble in the acidic conditions of the stomach (around pH 2) than in the near neutral conditions of the lower intestine (around pH 7) | concentration associated with half-maximal stimulation (SC50) of glucose utilization (glucose utilization): ~52 ng/mL

From patent US20070134326A1, “Composition for releasing a weak base for an extended period of time” (priority 2003, published 2007)
